Source: patent US20240010993A1, “CELL CULTURE CHAMBER AND METHOD FOR CULTURING CELLS AND FOR THE IN VITRO PRODUCTION OF CELL LAYERS AND ORGAN MODELS” (Dynamic42 GmbH, priority 2021, published 2024)

What was measured:
[1] = cited from earlier work
[2] = adsorption effect of PBT in cell culture chambers (active substance adsorption); type: physicochemical; settings: after 24 hours; both embodiments Chip PBT-BC1 and Chip PBT-BC2; control stock solution propiconazole 100 μM, troglitazone 64 μM
Procedure: After an incubation period of 24 h, at least 80% of the starting concentration of the propiconazole or the troglitazone is detectable in the culture medium (cf. FIG. 3A, FIG. 3B).
FIGS. 3A and 3B show results of experiments on the adsorption effect of PBT in two cell culture chambers 1 according to the disclosure of different designs. The designation, “Chip PBT-BC1,” denotes a first embodiment of the cell culture chamber 1, and “Chip PBT-BC2” a second embodiment. The first embodiment has a width B of 34.6 mm, a depth T of 6.56 mm, and a height H of 0.7 mm for the first channel 3. The second channel 4 has the dimensions of 44.8 mm, 3.6 mm, and 0.8 mm (W/D/H). The corresponding dimensions for the second embodiment, “Chip PBT-BC2,” of the cell culture chamber 1 are 34.6 mm, 8.06 mm, and 0.7 mm (W/D/H) for the first channel 3 and 49.4 mm, 5.61 mm, and 1.0 mm (B/T/H) for the second channel 4.
In comparison, a control in the form of a stock solution (100 μM) with propiconazole is given. […] In each case, it can be seen from the two graphics that, in both embodiments of the cell culture chamber 1 according to the disclosure, more than 85% of the propiconazole (FIG. 3A) and more than 80% of the troglitazone (FIG. 3B) in the culture medium 7 could be detected even after 24 hours.

[3] = after 24 hours in PDMS chips; binds irreversibly to PDMS; cited from earlier work
[4] = test system: macrophages in co-culture with liver sinusoidal endothelial cells and hepatocytes; test: LPS addition to liver model to check activatability of immune cells (cytokine release); type: cell-based; settings: LPS added at the tenth and fourteenth day of culture; FIG. 8
Procedure: In addition, lipopolysaccharide (LPS) was added to some samples at the tenth day and the fourteenth day to check the activatability of immune cells (macrophages) contained in the liver model, and the respective reactions were shown. The addition of LPS as a so-called pyrogenic substance represents a test for endotoxins that is customary in the art. Immune cells such as macrophages respond to this stimulus with increased release of cytokines. […] It can be deduced from this that macrophages in co-culture with the investigated liver sinusoidal endothelial cells and hepatocytes were capable of reacting with an immune response to an endotoxin even after 10 or after 14 days. This is important for being able to detect immune cell-mediated side effects of drugs.

Cc1c(C)c2c(c(C)c1O)CCC(C)(COc1ccc(CC3SC(=O)NC3=O)cc1)O2 (stereo not shown) [troglitazone]
log P [1]: 3.60

CCCC1COC(Cn2cncn2)(c2ccc(Cl)cc2Cl)O1 (stereo not shown) [propiconazole]
percentage (RTC - ratio to control) remaining and detectable in the culture medium [2]: more than 85%
detected fraction of the starting concentration in the culture medium [3]: less than 30%

lipopolysaccharide [LPS]
concentration of IL-1beta after the addition of LPS [4]: distinct increase
